The compounds below were run against T1, Human FAAH (Homo sapiens, UniProt O00519) (assay: FAAH enzyme assay (glutamate dehydrogenase coupled, oleamide substrate), irreversible inhibition kinetics). Conditions: human FAAH, 30° C., pH 7.4.
T1 construct: made in house
T1 sequence (O00519 1-579): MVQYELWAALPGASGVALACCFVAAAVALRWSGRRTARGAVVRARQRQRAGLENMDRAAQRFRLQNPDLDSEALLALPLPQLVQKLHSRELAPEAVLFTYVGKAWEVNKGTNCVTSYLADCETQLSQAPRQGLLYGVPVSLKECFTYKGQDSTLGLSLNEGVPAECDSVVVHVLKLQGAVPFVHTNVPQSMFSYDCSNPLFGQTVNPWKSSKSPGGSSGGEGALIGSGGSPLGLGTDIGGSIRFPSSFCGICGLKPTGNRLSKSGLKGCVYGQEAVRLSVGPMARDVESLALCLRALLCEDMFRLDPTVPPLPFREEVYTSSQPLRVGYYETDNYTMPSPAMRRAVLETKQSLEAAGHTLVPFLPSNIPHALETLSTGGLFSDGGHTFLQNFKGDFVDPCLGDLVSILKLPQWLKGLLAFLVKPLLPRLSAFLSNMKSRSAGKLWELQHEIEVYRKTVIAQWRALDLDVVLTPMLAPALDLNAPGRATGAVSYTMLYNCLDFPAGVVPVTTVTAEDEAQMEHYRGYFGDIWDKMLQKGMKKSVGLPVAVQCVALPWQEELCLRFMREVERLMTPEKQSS
Format: biochemical
Procedure: A FAAH enzyme assay may be carried out as described in WO2006/085196 in 384-well clear polystyrene plates in a total volume of 50 μl per well. All percents are by volume. To each well was placed the reaction mixture (40 μl) containing 1-4 nM FAAH, 50 mM NaPi, pH 7.4, 3 mM α-ketoglutarate, 0.15 mM NADH, 7.5 U/ml glutamate dehydrogenase, 2 mM ADP, 1 mM EDTA, and 0.1% Triton X-100 (The concentration shown for each component is the final concentration in the assay). To this mixture was added 5 μl of a compound of Examples 1 to 20 at various concentrations prepared in 50% DMSO (or 5 μl 50% DMSO for controls). This was immediately followed by the addition of 5 μl oleamide (500 μM) dissolved in 75% EtOH/25% DMSO and the reaction mixture is mixed for 1.5 min. The final concentrations of DMSO and EtOH in the assay were each 7.5%. The reactions was then incubated at 30° C. and the absorbance at 340 nm was collected over a period of 90 min with readings taken in 30-second intervals using SpectraMax Plus^384 Microplate Spectrophotometer (Molecular Devices, Sunnyvale, Calif.). Human FAAH used in the assay was prepared as described in the patent application WO 2006/067613. The purity of the enzyme used was greater than 98% based on an analysis by SDS-polyacrylamide gel electrophoresis followed by Coomassie Blue staining.
Initial velocity data (V) is obtained from the slopes of the initial progressive curves. They are plotted as a function of substrate concentration and fit to the Michaelis-Menten equation (1) using Prism (GraphPad Software, Inc., San Diego, Calif.) software to obtain Km and Vmax values.
To obtain potencies of irreversible inhibitors, progressive curves consistent with first order inhibition kinetics (two-step irreversible inhibition mechanism) are fit to equation (2) by nonlinear least squares regressions to determine kobs values at each inhibitor concentration, where [P]t is the absorbance at time t, V0 is a constant related to the steady state rate of the uninhibited reaction, and kobs is the first order rate constant for enzyme inactivation. The inhibitor dissociation constant (Ki) and the first order rate
(2) constant of enzyme inactivation at infinite inhibitor concentration (kinact) are then obtained by fitting the kobs vs. [I] curves to equation (3).

`CC1CN(C(=O)Nc2cccnn2)CC/C1=C\c1cccc(Oc2ccc(C(F)(F)F)cn2)c1` (single isomer, unassigned) [Example 1, (4E)-3-methyl-N-pyridazin-3-yl-4-(3-{[5-(trifluoromethyl)pyridin-2-yl]oxy}benzylidene)piperidine-1-carboxamide] was tested, and the “hFAAH Kinact/Ki” value was 4590 M⁻¹ s⁻¹.
First: CC1CN(C(=O)Nc2cccnn2)CC/C1=C\c1cccc(Oc2ccc(C(F)(F)F)cn2)c1 (single isomer, unassigned) [Example 2, (4E)-3-methyl-N-pyridazin-3-yl-4-(3-{[5-(trifluoromethyl)pyridin-2-yl]oxy}benzylidene)piperidine-1-carboxamide]
Second: CC1CN(C(=O)Nc2cccnc2)CC/C1=C\c1cccc(Oc2ccc(C(F)(F)F)cn2)c1 (single isomer, unassigned) [Example 3, (4E)-3-methyl-N-pyridin-3-yl-4-(3-{[5-(trifluoromethyl)pyridin-2-yl]oxy}benzylidene)piperidine-1-carboxamide]
The “hFAAH Kinact/Ki” value of the first is 19-fold lower: 254 M⁻¹ s⁻¹ for the first, 4890 M⁻¹ s⁻¹ for the second.

First: CC1CN(C(=O)Nc2cccnc2)CC/C1=C\c1cccc(Oc2ccc(C(F)(F)F)cn2)c1 (single isomer, unassigned) [Example 4, (4E)-3-methyl-N-pyridin-3-yl-4-(3-{[5-(trifluoromethyl)pyridin-2-yl]oxy}benzylidene)piperidine-1-carboxamide]
Second: CC1CN(C(=O)Nc2cccnc2)CC/C1=C\c1cccc(Oc2ncc(C(F)(F)F)cn2)c1 (single isomer, unassigned) [Example 16, (4E)-3-methyl-N-pyridin-3-yl-4-(3-{[5-(trifluoromethyl)pyrimidin-2-yl]oxy}benzylidene)piperidine-1-carboxamide]
The “hFAAH Kinact/Ki” value of the first is 97-fold lower: 71.4 M⁻¹ s⁻¹ for the first, 6930 M⁻¹ s⁻¹ for the second.

Compared with “(4E)-N-1,2-benzisoxazol-3-yl-3-methyl-4-(3-{[5-(trifluoromethyl)pyridin-2-yl]oxy}benzylidene)piperidine-1-carboxamide [Example 13]”, “(4E)-N-(6-methoxypyridazin-3-yl)-3-methyl-4-(3-{[5-(trifluoromethyl)pyridin-2-yl]oxy}benzylidene)piperidine-1-carboxamide [Example 12]” is 3.4-fold higher in “hFAAH Kinact/Ki” value: 733 M⁻¹ s⁻¹ for the first, 2500 M⁻¹ s⁻¹ for the second.

In the case of `CC1CN(C(=O)Nc2cccnc2)CC/C1=C\c1cccc(Oc2ncc(C(F)(F)F)cn2)c1` (single isomer, unassigned) [Example 17, (4E)-3-methyl-N-pyridin-3-yl-4-(3-{[5-(trifluoromethyl)pyrimidin-2-yl]oxy}benzylidene)piperidine-1-carboxamide], the “hFAAH Kinact/Ki” value was less than 15.5 M⁻¹ s⁻¹.

Same assay, conditions: pH 7.4, human FAAH, 30° C., read-out: hFAAH Kinact/Ki

Going from `CC1CN(C(=O)Nc2cccnc2)CC/C1=C\c1cccc(Oc2ccc(Br)cn2)c1` (racemic) [Example 14, (4E)-4-{3-[(5-bromopyridin-2-yl)oxy]benzylidene}-3-methyl-N-pyridin-3-ylpiperidine-1-carboxamide] to `CC1CN(C(=O)Nc2cccnc2)CC/C1=C\c1cccc(Oc2ccc(Cl)cn2)c1` (racemic) [Example 15, (4E)-4-{3-[(5-chloropyridin-2-yl)oxy]benzylidene}-3-methyl-N-pyridin-3-ylpiperidine-1-carboxamide], the kinact/KI rises from 747 M⁻¹ s⁻¹ to 4170 M⁻¹ s⁻¹ (5.6-fold).

`COc1ccc(NC(=O)N2CC/C(=C\c3cccc(Oc4ccc(C(F)(F)F)cn4)c3)C(C)C2)cn1` (single isomer, unassigned) [Example 5, (4E)-N-(6-methoxypyridin-3-yl)-3-methyl-4-(3-{[5-(trifluoromethyl)pyridin-2-yl]oxy}benzylidene)piperidine-1-carboxamide] and `CC1CN(C(=O)Nc2ccc(C#N)nc2)CC/C1=C\c1cccc(Oc2ccc(C(F)(F)F)cn2)c1` (single isomer, unassigned) [Example 8, (4E)-N-(6-cyanopyridin-3-yl)-3-methyl-4-(3-{[5-(trifluoromethyl)pyridin-2-yl]oxy}benzylidene)piperidine-1-carboxamide] are within 1.5-fold of each other in kinact/KI: 2850 M⁻¹ s⁻¹ for the first, 2460 M⁻¹ s⁻¹ for the second.

`CC1CN(C(=O)Nc2cnc3[nH]ccc3c2)CC/C1=C\c1cccc(Oc2ccc(C(F)(F)F)cn2)c1` (single isomer, unassigned) [Example 6, (4E)-3-methyl-N-1H-pyrrolo[2,3-b]pyridin-5-yl-4-(3-{[5-(trifluoromethyl)pyridin-2-yl]oxy}benzylidene)piperidine-1-carboxamide] and `Cc1cncc(NC(=O)N2CC/C(=C\c3cccc(Oc4ccc(C(F)(F)F)cn4)c3)C(C)C2)c1` (single isomer, unassigned) [Example 7, (4E)-3-methyl-N-(5-methylpyridin-3-yl)-4-(3-{[5-(trifluoromethyl)pyridin-2-yl]oxy}benzylidene)piperidine-1-carboxamide] are within 1.5-fold of each other in kinact/KI: 1420 M⁻¹ s⁻¹ for the first, 1290 M⁻¹ s⁻¹ for the second.

`COc1cnc(NC(=O)N2CC/C(=C\c3cccc(Oc4ccc(C(F)(F)F)cn4)c3)C(C)C2)cn1` (single isomer, unassigned) [Example 9, (4E)-N-(5-methoxypyrazin-2-yl)-3-methyl-4-(3-{[5-(trifluoromethyl)pyridin-2-yl]oxy}benzylidene)piperidine-1-carboxamide] and `Cc1cnc(NC(=O)N2CC/C(=C\c3cccc(Oc4ccc(C(F)(F)F)cn4)c3)C(C)C2)cn1` (single isomer, unassigned) [Example 10, (4E)-3-methyl-N-(5-methylpyrazin-2-yl)-4-(3-{[5-(trifluoromethyl)pyridin-2-yl]oxy}benzylidene)piperidine-1-carboxamide] are within 1.5-fold of each other in kinact/KI: 2390 M⁻¹ s⁻¹ for the first, 3390 M⁻¹ s⁻¹ for the second.

With `COc1cncc(NC(=O)N2CC/C(=C\c3cccc(Oc4ccc(C(F)(F)F)cn4)c3)C(C)C2)n1` (single isomer, unassigned) [Example 11, (4E)-N-(6-methoxypyrazin-2-yl)-3-methyl-4-(3-{[5-(trifluoromethyl)pyridin-2-yl]oxy}benzylidene)piperidine-1-carboxamide] the kinact/KI was 1880 M⁻¹ s⁻¹.

Each compound was assayed against T2, rFAAH (Rattus norvegicus, UniProt P97612) (assay: FAAH_KINACTR rFAAH kobs/I). Conditions: further data table, substances given by IUPAC name only.
T2 sequence (P97612 1-579): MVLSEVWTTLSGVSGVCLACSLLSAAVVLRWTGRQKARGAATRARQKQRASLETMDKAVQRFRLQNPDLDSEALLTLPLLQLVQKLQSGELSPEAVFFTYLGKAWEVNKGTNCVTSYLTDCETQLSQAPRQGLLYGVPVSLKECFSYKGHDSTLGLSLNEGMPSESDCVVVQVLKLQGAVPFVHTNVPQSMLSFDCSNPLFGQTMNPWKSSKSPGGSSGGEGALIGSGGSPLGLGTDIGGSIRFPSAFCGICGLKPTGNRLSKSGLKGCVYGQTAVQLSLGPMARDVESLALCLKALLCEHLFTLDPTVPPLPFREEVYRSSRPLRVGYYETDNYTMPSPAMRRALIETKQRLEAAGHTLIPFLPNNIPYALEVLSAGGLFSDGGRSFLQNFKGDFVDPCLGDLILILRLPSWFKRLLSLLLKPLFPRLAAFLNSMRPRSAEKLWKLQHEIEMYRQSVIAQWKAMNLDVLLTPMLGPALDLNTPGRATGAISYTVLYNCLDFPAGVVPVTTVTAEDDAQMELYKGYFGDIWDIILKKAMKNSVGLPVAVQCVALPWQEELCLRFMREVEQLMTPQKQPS
Format: biochemical

In the case of `CC1CN(C(=O)Nc2cccnn2)CC/C1=C\c1cccc(Oc2ccc(C(F)(F)F)cn2)c1` (stereo not drawn) [(4E)-3-methyl-N-pyridazin-3-yl-4-(3-{[5-(trifluoromethyl)pyridin-2-yl]oxy}benzylidene)piperidine-1-carboxamide], the “FAAH_KINACTR:rFAAH:kobs/I” value was 3730.
